Where two headings read alike, the source gives them in different places.
Legend:
VZV = test: Viral qPCR assay, VZV; assay type: cell-based, varicella zoster virus; settings: MeWo or MRC5 cells, 0.04-0.1 pfu/cell, growth medium, viral genome copies by qPCR
In short: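 VZV strain Street at 0.04-0.1 pfu/cell infected MeWo or MRC5 cells added to 10-point, 3-fold compound dilutions; ~72 h at 37° C. Viral genome copies by TaqMan qPCR against plasmid standard curve, sometimes normalised to PPIA, scaled between uninfected and DMSO-infected controls; EC50 from 4-parameter fit.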

[1] = target: T1, Human cytomegalovirus DNA polymerase (Human cytomegalovirus, UniProt P08546); test: CMV polymerase assay (AlphaLISA); assay type: biochemical; settings: HCMV polymerase 0.2 nM; 30 min pre-incubation; 60 min at 37° C.; read-out: CMV (IC50)
T1 construct: made in house; host or cells: SF21 insect cells (baculovirus vector)
In short: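 Baculovirus-expressed polymerase (HCMV 0.2 nM, VZV 0.4 nM) preincubated 30 min with compound, then reacted 60 min at 37 °C with 1.6 nM DIG-primer/59-mer template and low-nM dNTPs including 0.8 nM biotin-dUTP. Incorporation detected by AlphaLISA; IC50 from a 4-parameter fit normalized to DMSO and pre-quenched controls.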

HCMV Strain AD169 = test: Viral qPCR assay, HCMV; assay type: cell-based, Human cytomegalovirus; settings: MRC-5 cells, 0.05-0.1 pfu/cell, growth media or 50% fetal bovine serum, viral genome copies by qPCR, read-out: CMV Cell (EC50)
In short: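 HCMV AD169 at 0.05-0.1 pfu/cell infected MRC-5 cells, added to 10-point 3-fold compound dilutions, in growth medium or medium with 50% FBS; ~72 h at 37°C. Viral genome copies by TaqMan qPCR against plasmid standard curve, normalized to DMSO and uninfected controls; EC50 from 4-parameter fit.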

HSV-1 Strain F = test: Viral qPCR assay, HSV-1; assay type: cell-based, Herpes Simplex Virus type 1; settings: Vero or MRC5 cells, 0.0005-0.004 pfu/cell, growth medium, viral genome copies by qPCR, read-out: HSV1 Cell (EC50)
In short: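 HSV-1 strain F at 0.0005–0.004 pfu/cell infected Vero or MRC5 cells, which were added to a 10-point 3-fold compound dilution and cultured ~72 h at 37 °C. Viral genomes in the lysates were quantified by TaqMan qPCR against a plasmid standard curve, in some runs normalized to cellular PPIA. EC50 came from a 4-parameter fit of % effect.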

[2] = target: T2, varicella zoster virus DNA polymerase (Varicella-zoster virus, UniProt P09252); test: VZV polymerase assay (AlphaLISA); assay type: biochemical; settings: VZV polymerase 0.4 nM; 30 min pre-incubation; 60 min at 37° C.
T2 construct: made in house; host or cells: SF21 insect cells (baculovirus vector)
Experimental: Human cytomegalovirus and varicella zoster virus DNA polymerases were expressed via baculovirus vector in SF21 cells and purified. Heterodimeric nucleic acid substrate used in the herpesvirus polymerase reactions was generated by annealing a 59-mer template to a 17-mer digoxigenin-labeled primer. Polymerase (HCMV final concentration of 0.2 nM; VZV final concentration of 0.4 nM) was combined with an inhibitor compound or DMSO in assay buffer (10 mM HEPES, pH 7.5, 25 mM KCl, 25 mM NaCl, 5 mM MgCl2, 5% glycerol, 0.67 mg/ml bovine serum albumin, and 1 mM tris(2-carboxyethyl)phosphine), and this mixture was pre-incubated for 30 minutes at room temperature in 384-well microtiter plates. The polymerization reaction was initiated by the addition of template/primer substrate (final concentration: 1.6 nM), and dNTPs (final concentration: 24 nM dCTP, 24 nMdGTP, 16 nM dATP, 16 nM dTTP, and 0.8 nM biotin-dUTP). After 60 min incubation at 37° C., reactions were terminated with quench buffer (25 mM HEPES pH 7.5, 100 mM NaCl, 0.25% Tween-20, 12 mM EDTA, and 1 mg/ml bovine serum albumin). Incorporation of biotinylated UTP was detected with 2.5-5 ug/ml anti-DIG AlphaLISA acceptor beads and 5-10 ug/ml streptavidin AlphaLISA donor beads (PerkinElmer). Compound effects were normalized to the window defined by the controls (DMSO only and pre-quenched wells) and were fit using a 4-parameter algorithm to report an IC50.

[3] = Human betaherpesvirus 5, AD169, MRC5, 72 h

T1 sequence (P08546 whole entry): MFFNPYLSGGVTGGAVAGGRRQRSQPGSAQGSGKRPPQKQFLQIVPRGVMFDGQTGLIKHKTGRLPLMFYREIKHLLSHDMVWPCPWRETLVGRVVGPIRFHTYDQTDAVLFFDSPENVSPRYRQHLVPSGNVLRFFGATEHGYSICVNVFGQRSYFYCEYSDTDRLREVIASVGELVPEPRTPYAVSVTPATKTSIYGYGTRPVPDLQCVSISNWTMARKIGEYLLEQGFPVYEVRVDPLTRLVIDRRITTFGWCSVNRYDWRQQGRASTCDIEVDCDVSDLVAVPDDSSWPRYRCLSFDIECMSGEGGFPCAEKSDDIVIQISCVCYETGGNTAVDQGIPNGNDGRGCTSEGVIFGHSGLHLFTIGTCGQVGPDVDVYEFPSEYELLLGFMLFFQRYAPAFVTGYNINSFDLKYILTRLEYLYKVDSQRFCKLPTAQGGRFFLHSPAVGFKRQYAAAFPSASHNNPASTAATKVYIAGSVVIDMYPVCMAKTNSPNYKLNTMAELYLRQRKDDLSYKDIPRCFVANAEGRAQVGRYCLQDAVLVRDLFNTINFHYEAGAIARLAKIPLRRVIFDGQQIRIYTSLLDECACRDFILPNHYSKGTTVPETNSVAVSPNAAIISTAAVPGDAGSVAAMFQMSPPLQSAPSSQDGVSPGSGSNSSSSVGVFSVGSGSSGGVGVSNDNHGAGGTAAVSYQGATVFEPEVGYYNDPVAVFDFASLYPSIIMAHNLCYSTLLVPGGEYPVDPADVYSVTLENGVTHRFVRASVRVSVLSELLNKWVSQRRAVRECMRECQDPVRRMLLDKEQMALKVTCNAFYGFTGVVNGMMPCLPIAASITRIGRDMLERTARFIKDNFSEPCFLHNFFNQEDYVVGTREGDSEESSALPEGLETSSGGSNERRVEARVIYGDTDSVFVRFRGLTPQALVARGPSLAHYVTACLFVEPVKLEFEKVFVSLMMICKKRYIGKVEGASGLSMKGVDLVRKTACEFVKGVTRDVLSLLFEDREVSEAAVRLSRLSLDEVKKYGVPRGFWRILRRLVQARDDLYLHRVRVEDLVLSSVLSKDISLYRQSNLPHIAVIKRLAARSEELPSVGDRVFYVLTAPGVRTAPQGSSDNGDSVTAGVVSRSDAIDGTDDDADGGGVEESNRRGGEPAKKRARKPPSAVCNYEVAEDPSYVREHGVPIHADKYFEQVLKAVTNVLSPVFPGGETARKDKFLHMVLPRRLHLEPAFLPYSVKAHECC
T2 sequence (P09252 whole entry): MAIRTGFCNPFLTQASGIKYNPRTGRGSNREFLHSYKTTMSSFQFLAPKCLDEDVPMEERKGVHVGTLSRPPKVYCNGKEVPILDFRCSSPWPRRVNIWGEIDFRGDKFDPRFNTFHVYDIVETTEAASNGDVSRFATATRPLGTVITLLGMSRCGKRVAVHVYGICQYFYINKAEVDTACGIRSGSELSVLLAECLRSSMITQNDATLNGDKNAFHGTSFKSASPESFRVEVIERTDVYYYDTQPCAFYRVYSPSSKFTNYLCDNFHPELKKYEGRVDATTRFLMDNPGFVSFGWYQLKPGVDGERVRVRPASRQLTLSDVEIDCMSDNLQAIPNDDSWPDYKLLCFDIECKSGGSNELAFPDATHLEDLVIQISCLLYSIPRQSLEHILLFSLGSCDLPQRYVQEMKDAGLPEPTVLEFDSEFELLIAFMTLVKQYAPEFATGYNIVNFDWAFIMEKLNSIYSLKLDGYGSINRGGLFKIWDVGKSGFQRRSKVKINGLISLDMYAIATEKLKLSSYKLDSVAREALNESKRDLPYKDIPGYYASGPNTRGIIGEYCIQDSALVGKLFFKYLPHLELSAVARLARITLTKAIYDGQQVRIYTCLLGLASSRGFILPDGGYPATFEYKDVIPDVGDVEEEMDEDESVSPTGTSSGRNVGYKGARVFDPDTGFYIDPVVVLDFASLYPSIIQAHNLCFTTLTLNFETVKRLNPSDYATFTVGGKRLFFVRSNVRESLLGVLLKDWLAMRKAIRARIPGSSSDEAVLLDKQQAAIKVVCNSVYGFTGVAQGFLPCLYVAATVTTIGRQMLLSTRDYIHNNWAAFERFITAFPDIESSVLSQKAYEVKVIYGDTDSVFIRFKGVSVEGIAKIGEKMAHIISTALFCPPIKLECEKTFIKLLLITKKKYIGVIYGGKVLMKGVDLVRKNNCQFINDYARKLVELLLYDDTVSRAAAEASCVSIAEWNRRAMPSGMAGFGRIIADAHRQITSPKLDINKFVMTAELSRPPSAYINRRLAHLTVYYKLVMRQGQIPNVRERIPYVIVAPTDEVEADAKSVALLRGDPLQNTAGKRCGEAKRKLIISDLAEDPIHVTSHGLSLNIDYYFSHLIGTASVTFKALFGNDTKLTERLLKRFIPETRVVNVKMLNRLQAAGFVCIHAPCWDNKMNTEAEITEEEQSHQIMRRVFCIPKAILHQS

| SMILES | EC50 (VZV; Human alphaherpesvirus 3, 72 h) [µM] | IC50 [1] [µM] | EC50 (HCMV Strain AD169; [3]) [µM] | EC50 (HSV-1 Strain F; Human alphaherpesvirus 1, 72 h) [µM] | IC50 [2] [µM] | EC50 (VZV; ~72 hrs) [µM] | EC50 (HCMV Strain AD169; ~72 hrs) [µM] | EC50 (HSV-1 Strain F; ~72 hrs) [µM] |
| --- | --- | --- | --- | --- | --- | --- | --- | --- |
| COc1nc(-c2cc(C)no2)c(O[C@H]2CCN3C(=O)OC[C@@H]3C2)cc1C(=O)NCc1ccc(Cl)cc1 [Compound 9] | 0.0984 | 0.00487 | 0.111 | 0.0857 | 0.00171 |  |  |  |
| COc1nc(-c2ncco2)c(O[C@H]2CCN3C(=O)OC[C@@H]3C2)cc1C(=O)NCc1ccc(Cl)cc1 [Compound 62] | 0.157 | 0.0043 | 0.073 | 0.129 | 0.000252 |  |  |  |
| COc1nc(-c2ccnnc2)c(O[C@H]2CCN3C(=O)OC[C@@H]3C2)cc1C(=O)NCc1ccc(Cl)cc1 [Compound 37] | 0.178 | 0.00881 | 0.18 | 0.144 | 0.00824 |  |  |  |
| COc1nc(-c2cnc(N)c(F)c2)c(O[C@H]2CCN3C(=O)OC[C@@H]3C2)cc1C(=O)NCc1ccc(Cl)cc1 [Compound 46] | 0.121 | 0.00469 | 0.165 | 0.0516 | 0.00153 |  |  |  |
| COc1nc(-c2cnn(C(F)F)c2)c(O[C@H]2CCN3C(=O)OC[C@@H]3C2)cc1C(=O)NCc1ccc(C#N)cc1 [Compound 56] | 0.123 | 0.00208 | 0.102 | 0.0363 | 0.00648 |  |  |  |
| CC(C)(O)COc1nc(-c2cnn(C(F)F)c2)c(O[C@H]2CCN3C(=O)OC[C@@H]3C2)cc1C(=O)NCc1ccc(Cl)cc1 [Compound 86] | 0.232 | 0.00884 | 0.213 | 0.13 | 0.00296 |  |  |  |
| O=C(NCc1ccc(Cl)cc1)c1cc(O[C@H]2CCN3C(=O)OC[C@@H]3C2)c(-c2cnn(C(F)F)c2)nc1OCCO [Compound 84] | 0.14 | 0.00333 | 0.116 | 0.113 | 0.000627 |  |  |  |
| COc1nc(N2CCC(C(C)(C)N)C2)c(O[C@H]2CCN3C(=O)OC[C@@H]3C2)cc1C(=O)NCc1ccc(Cl)cc1 (single isomer, unassigned) [Compound 72] |  | 0.0455 |  |  | 0.0124 | 0.665 | 0.276 | 0.559 |
| COc1nc(-c2cnc(C(C)(C)O)s2)c(O[C@H]2CCN3C(=O)OC[C@@H]3C2)cc1C(=O)NCc1ccc(Cl)cc1 [Compound 19] | 0.204 | 0.00555 | 0.157 | 0.0969 | 0.00291 |  |  |  |
| COc1nc(-c2cnn3c2CCC3)c(O[C@H]2CCN3C(=O)OC[C@@H]3C2)cc1C(=O)NCc1ccc(Cl)cc1 [Compound 24] | 0.39 | 0.00758 | 0.2 | 0.195 | 0.00403 |  |  |  |
| COc1nc(-c2cnn(C(F)F)c2)c(O[C@H]2CCN3C(=O)OC[C@@H]3C2)cc1C(=O)NCc1ccc(Cl)c(F)c1 [Compound 55] | 0.178 | 0.00316 | 0.161 | 0.102 | 0.00538 |  |  |  |
| COc1nc(-c2cnco2)c(O[C@H]2CCN3C(=O)OC[C@@H]3C2)cc1C(=O)NCc1ccc(C#N)cc1 [Compound 60] | 0.0904 | 0.00632 | 0.0298 | 0.065 | 0.000351 |  |  |  |
| COc1nc(-c2cnn(C(F)F)c2)c(O[C@H]2CCN3C(=O)OC[C@@H]3C2)cc1C(=O)NCc1ccc(Cl)cc1 [Compound 4] | 0.141 | 0.00752 | 0.146 | 0.105 | 0.000715 |  |  |  |
| COc1nc(-c2cc(C)ns2)c(O[C@H]2CCN3C(=O)OC[C@@H]3C2)cc1C(=O)NCc1ccc(Cl)cc1 [Compound 7] | 0.129 | 0.00132 | 0.0826 | 0.0726 | 0.000223 |  |  |  |

From patent publication US20240083910A1, “AMIDO-SUBSTITUTED PYRIDYL COMPOUNDS AND METHODS OF USE THEREOF FOR THE TREATMENT OF HERPESVIRUSES” (Merck Sharp & Dohme LLC, priority 2020, published 2024)
